Measurements reported in US20240109917A1 (ACTELION PHARMACEUTICALS LTD, priority 2020, published 2024).
Like-named read-outs stand apart in the source and are kept apart here.

Biological target: PDGFRβ (Rattus norvegicus (Rat), UniProt Q05030)
Test: PDGFRβ Cellular Assay (PDGFRb P-Y751 HTRF in A10 cells stimulated with PDGF-BB)
Type: cell-based
Outline: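 Rat A10 cells, plated overnight, were treated with compound for 3 hours, then stimulated with PDGF-BB (working stock 100 ng/mL in 10% FBS medium). After lysis, PDGFRβ P-Y751 was detected by HTRF.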

Chain of PDGFRβ (Q05030 32-1097): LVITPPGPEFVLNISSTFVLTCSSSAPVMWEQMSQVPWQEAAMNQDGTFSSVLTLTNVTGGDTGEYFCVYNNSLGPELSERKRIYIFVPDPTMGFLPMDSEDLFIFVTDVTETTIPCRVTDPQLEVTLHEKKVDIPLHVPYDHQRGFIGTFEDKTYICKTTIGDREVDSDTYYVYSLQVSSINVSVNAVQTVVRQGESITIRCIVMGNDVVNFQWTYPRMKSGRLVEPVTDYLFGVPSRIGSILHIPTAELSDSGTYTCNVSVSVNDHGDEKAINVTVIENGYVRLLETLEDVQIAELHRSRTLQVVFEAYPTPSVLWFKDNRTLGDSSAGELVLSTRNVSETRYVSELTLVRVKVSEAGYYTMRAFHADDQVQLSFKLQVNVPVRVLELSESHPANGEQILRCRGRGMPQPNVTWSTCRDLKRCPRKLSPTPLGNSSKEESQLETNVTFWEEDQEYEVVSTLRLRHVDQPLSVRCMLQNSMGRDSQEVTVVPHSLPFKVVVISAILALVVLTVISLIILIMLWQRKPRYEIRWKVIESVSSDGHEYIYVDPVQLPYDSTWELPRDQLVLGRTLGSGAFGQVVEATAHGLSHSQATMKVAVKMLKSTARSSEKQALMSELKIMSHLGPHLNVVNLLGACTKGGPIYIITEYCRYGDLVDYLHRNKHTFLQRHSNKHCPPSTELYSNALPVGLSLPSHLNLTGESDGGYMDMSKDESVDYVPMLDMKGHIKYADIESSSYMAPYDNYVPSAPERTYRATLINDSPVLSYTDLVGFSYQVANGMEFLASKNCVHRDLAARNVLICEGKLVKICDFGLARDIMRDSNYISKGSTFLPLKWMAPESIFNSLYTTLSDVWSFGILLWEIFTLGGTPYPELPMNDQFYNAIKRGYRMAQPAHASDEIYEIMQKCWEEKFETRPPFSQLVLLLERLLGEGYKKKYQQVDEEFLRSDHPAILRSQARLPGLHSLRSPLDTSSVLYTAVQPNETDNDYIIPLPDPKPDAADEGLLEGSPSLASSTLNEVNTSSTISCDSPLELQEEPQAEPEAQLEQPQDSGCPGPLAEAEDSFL

**Q.** With `CNC(=O)Cn1cc(-c2cn3ncc(C(=O)Nc4cc(NC(=O)CN5CC(C)(C)C5)cnc4C)c3s2)cn1` [Example 279, N-(5-(2-(3,3-dimethylazetidin-1-yl)acetamido)-2-methylpyridin-3-yl)-2-(1-(2-(methylamino)-2-oxoethyl)-1H-pyrazol-4-yl)pyrazolo[5,1-b]thiazole-7-carboxamide] as the compound, how does the IC50 (read-out: PDGFR Cellular IC50) read?
**A.** 134 nM

**Q.** Which IC50 (read-out: PDGFR Cellular IC50) does the source give for `COc1ncccc1-c1cn2ncc(C(=O)Nc3cc(C(=O)NCCN4CCC[C@@H]4C)cnc3C)c2s1` [Example 301, (S)-2-(2-methoxypyridin-3-yl)-N-(2-methyl-5-((2-(2-methylpyrrolidin-1-yl)ethyl)carbamoyl)pyridin-3-yl)pyrazolo[5,1-b]thiazole-7-carboxamide] here?
**A.** 4.3 nM

**Q.** Which IC50 (PDGFR Cellular IC50) does the source give for `COCCn1cc(-c2cn3ncc(C(=O)Nc4cc(NC(=O)CN5CCCC5(C)C)cnc4C)c3s2)cn1` [Example 329, N-(5-(2-(2,2-dimethylpyrrolidin-1-yl)acetamido)-2-methylpyridin-3-yl)-2-(1-(2-methoxyethyl)-1H-pyrazol-4-yl)pyrazolo[5,1-b]thiazole-7-carboxamide] here?
**A.** 4.4 nM

**Q.** `COc1ncccc1-c1cn2ncc(C(=O)Nc3cc(NC(=O)CN4CCC5(CC5)C4)cnc3C)c2s1` [Example 324, N-(5-(2-(5-azaspiro[2.4]heptan-5-yl)acetamido)-2-methylpyridin-3-yl)-2-(2-methoxypyridin-3-yl)pyrazolo[5,1-b]thiazole-7-carboxamide] was tested. Which IC50 (read-out: PDGFR Cellular IC50) did it give?
**A.** 1.1 nM

**Q.** How did the IC50 (read-out: PDGFR Cellular IC50) turn out when `COc1ncccc1-c1cn2ncc(C(=O)Nc3cc(NC(=O)C[C@H]4CCCN4C(C)C)cnc3C)c2s1` [Example 309, (R)—N-(5-(2-(1-isopropylpyrrolidin-2-yl)acetamido)-2-methylpyridin-3-yl)-2-(2-methoxypyridin-3-yl)pyrazolo[5,1-b]thiazole-7-carboxamide] was run?
**A.** 4.2 nM

**Q.** Which IC50 (PDGFR Cellular IC50) does the source give for `Cc1ncc(NC(=O)OC[C@@H]2CCCN2C)cc1NC(=O)c1cnn2cc(-c3cccnc3O)sc12` [Example 256, (S)-(1-methylpyrrolidin-2-yl)methyl (5-(2-(2-hydroxypyridin-3-yl)pyrazolo[5,1-b]thiazole-7-carboxamido)-6-methylpyridin-3-yl)carbamate] here?
**A.** 1340 nM

**Q.** For `Cc1ncc(NC(=O)CN2CC(C)(C)C2)cc1NC(=O)c1cnn2cc(-c3cnn(CC(F)(F)F)c3)sc12` [Example 268, N-(5-(2-(3,3-dimethylazetidin-1-yl)acetamido)-2-methylpyridin-3-yl)-2-(1-(2,2,2-trifluoroethyl)-1H-pyrazol-4-yl)pyrazolo[5,1-b]thiazole-7-carboxamide], which IC50 (read-out: PDGFR Cellular IC50) is on record?
**A.** 11.6 nM

**Q.** For `Cc1ncc(NC(=O)CN(C)C2CCOCC2)cc1NC(=O)c1cnn2cc(-c3cnn(C4CC4)c3)sc12` [Example 294, 2-(1-cyclopropyl-1H-pyrazol-4-yl)-N-(2-methyl-5-(2-(methyl(tetrahydro-2H-pyran-4-yl)amino)acetamido)pyridin-3-yl)pyrazolo[5,1-b]thiazole-7-carboxamide], which IC50 (read-out: PDGFR Cellular IC50) is on record?
**A.** 12.7 nM

**Q.** With `Cc1ncc(NC(=O)C[C@@H]2CCCN2C(C)C)cc1NC(=O)c1cnn2cc(-c3cccnc3O)sc12` [Example 322, (S)-2-(2-hydroxypyridin-3-yl)-N-(5-(2-(1-isopropylpyrrolidin-2-yl)acetamido)-2-methylpyridin-3-yl)pyrazolo[5,1-b]thiazole-7-carboxamide] as the compound, how does the IC50 (read-out: PDGFR Cellular IC50) read?
**A.** 122 nM

**Q.** For `COc1ncccc1-c1cn2ncc(C(=O)Nc3cc(NC(=O)CN4CCCC4)cnc3C)c2s1` [Example 313, 2-(2-methoxypyridin-3-yl)-N-(2-methyl-5-(2-(pyrrolidin-1-yl)acetamido)pyridin-3-yl)pyrazolo[5,1-b]thiazole-7-carboxamide], which IC50 (read-out: PDGFR Cellular IC50) is on record?
**A.** 2.8 nM

**Q.** For `Cc1ncc(NC(=O)CN2CC(C)(C)C2)cc1NC(=O)c1cnn2cc(-c3cn[nH]c3)sc12` [Example 271, N-(5-(2-(3,3-dimethylazetidin-1-yl)acetamido)-2-methylpyridin-3-yl)-2-(1H-pyrazol-4-yl)pyrazolo[5,1-b]thiazole-7-carboxamide], which IC50 (read-out: PDGFR Cellular IC50) is on record?
**A.** 10.3 nM

**Q.** With `COCCn1cc(-c2cn3ncc(C(=O)Nc4cc(NC(=O)CN5CCC[C@H]5C)cnc4C)c3s2)cn1` [Example 330, (R)-2-(1-(2-methoxyethyl)-1H-pyrazol-4-yl)-N-(2-methyl-5-(2-(2-methylpyrrolidin-1-yl)acetamido)pyridin-3-yl)pyrazolo[5,1-b]thiazole-7-carboxamide] as the compound, how does the IC50 (read-out: PDGFR Cellular IC50) read?
**A.** 6.8 nM

**Q.** How did the IC50 (read-out: PDGFR Cellular IC50) turn out when `CC[C@H]1CN(CC(=O)Nc2cnc(C)c(NC(=O)c3cnn4cc(-c5cccnc5OC)sc34)c2)CCO1` [Example 311, (S)—N-(5-(2-(2-ethylmorpholino)acetamido)-2-methylpyridin-3-yl)-2-(2-methoxypyridin-3-yl)pyrazolo[5,1-b]thiazole-7-carboxamide] was run?
**A.** 2.4 nM

**Q.** With `COc1ncccc1-c1cn2ncc(C(=O)Nc3cc(NC(=O)C[C@@H]4CCCN4C(C)C)cnc3C)c2s1` [Example 323, (S)—N-(5-(2-(1-isopropylpyrrolidin-2-yl)acetamido)-2-methylpyridin-3-yl)-2-(2-methoxypyridin-3-yl)pyrazolo[5,1-b]thiazole-7-carboxamide] as the compound, how does the IC50 (read-out: PDGFR Cellular IC50) read?
**A.** 2.8 nM

**Q.** With `Cc1ncc(NC(=O)CC23CCCN2CCC3)cc1NC(=O)c1cnn2cc(-c3cnn(C)c3)sc12` [Example 302, 2-(1-methyl-1H-pyrazol-4-yl)-N-(2-methyl-5-(2-(tetrahydro-1H-pyrrolizin-7a(5H)-yl)acetamido)pyridin-3-yl)pyrazolo[5,1-b]thiazole-7-carboxamide] as the compound, how does the IC50 (read-out: PDGFR Cellular IC50) read?
**A.** 7 nM

**Q.** Which IC50 (read-out: PDGFR Cellular IC50) does the source give for `Cc1ncc(NC(=O)CN2CCCC2(C)C)cc1NC(=O)c1cnn2cc(-n3ncc4cccnc43)sc12` [Example 259, N-(5-(2-(2,2-dimethylpyrrolidin-1-yl)acetamido)-2-methylpyridin-3-yl)-2-(1H-pyrazolo[3,4-b]pyridin-1-yl)pyrazolo[5,1-b]thiazole-7-carboxamide] here?
**A.** 3.9 nM

**Q.** With `COc1ncccc1-c1cn2ncc(C(=O)Nc3cc(NC(=O)CN4CCO[C@H](C)C4)cnc3C)c2s1` [Example 318, (R)-2-(2-methoxypyridin-3-yl)-N-(2-methyl-5-(2-(2-methylmorpholino)acetamido)pyridin-3-yl)pyrazolo[5,1-b]thiazole-7-carboxamide] as the compound, how does the IC50 (PDGFR Cellular IC50) read?
**A.** 3.8 nM

**Q.** How did the IC50 (read-out: PDGFR Cellular IC50) turn out when `Cc1ncc(NC(=O)CN2CC(C)(C)C2)cc1NC(=O)c1cnn2cc(-c3ccoc3)sc12` [Example 283, N-(5-(2-(3,3-dimethylazetidin-1-yl)acetamido)-2-methylpyridin-3-yl)-2-(furan-3-yl)pyrazolo[5,1-b]thiazole-7-carboxamide] was run?
**A.** 1.5 nM

**Q.** For `Cc1ncc(NC(=O)CN2CC(C)(C)C2)cc1NC(=O)c1cnn2cc(-c3cnn(C4CCNCC4)c3)sc12` [Example 293, N-(5-(2-(3,3-dimethylazetidin-1-yl)acetamido)-2-methylpyridin-3-yl)-2-(1-(piperidin-4-yl)-1H-pyrazol-4-yl)pyrazolo[5,1-b]thiazole-7-carboxamide], which IC50 (read-out: PDGFR Cellular IC50) is on record?
**A.** 337 nM

**Q.** With `Cc1ncc(NC(=O)CN2CC(C)(C)C2)cc1NC(=O)c1cnn2cc(-c3cnn(CC4COC4)c3)sc12` [Example 263, N-(5-(2-(3,3-dimethylazetidin-1-yl)acetamido)-2-methylpyridin-3-yl)-2-(1-(oxetan-3-ylmethyl)-1H-pyrazol-4-yl)pyrazolo[5,1-b]thiazole-7-carboxamide] as the compound, how does the IC50 (read-out: PDGFR Cellular IC50) read?
**A.** 13.9 nM

**Q.** How did the IC50 (read-out: PDGFR Cellular IC50) turn out when `Cc1ncc(NC(=O)CN2CC(C)(C)C2)cc1NC(=O)c1cnn2cc(-c3cnn(C4COC4)c3)sc12` [Example 264, N-(5-(2-(3,3-dimethylazetidin-1-yl)acetamido)-2-methylpyridin-3-yl)-2-(1-(oxetan-3-yl)-1H-pyrazol-4-yl)pyrazolo[5,1-b]thiazole-7-carboxamide] was run?
**A.** 7.6 nM
